This is an account of results in ChEMBL document CHEMBL4364251, “Design, synthesis and biological evaluation of new quinoline derivatives as potential antitumor agents” (Eur J Med Chem, 2019).

The source made the active and inactive calls. The calls are words filed in the database; no cut-off is given here.

In test [1] the test system is HCT-116. Description: Induction of apoptosis in human HCT116 cells deficient in ATG7 assessed as viable cells at 8 uM incubated for 24 hrs by annexin-V-FITC/PI staining based FACS analysis (reference value: 85.27%). The format is functional. The conditions noted are these: HCT-116, 24 h, read-out: Activity. Background: A flow cytometer gives signals particle by particle.

Test [2] deals with HCT-116. The test is described as follows: Induction of morphological changes in human HCT116 cells assessed as cell shrinkage at 4 to 10 uM incubated for 24 hrs by phase-contrast microscopic method. The format is functional, cell-based.
Test [3] relates to HCT-116. The test is described as follows: Induction of apoptosis in human HCT116 cells deficient in p53 assessed as increase in pro-caspase3 protein expression level at 4 to 8 uM incubated for 24 hrs by Western blot analysis. The format is functional, cell-based. For orientation: In western blotting, separated proteins are transferred to a membrane and probed.
A further test relates to RKO. Description: Antiproliferative activity against human RKO cells incubated for 48 hrs by MTT assay. The format is functional, cell-based. A general note: Formazan colour is commonly taken as a measure of viable cells.
The test system of test [4] is HCT-116. The test is described as follows: Induction of apoptosis in human HCT116 cells assessed as increase in cleaved PARP protein expression level at 4 to 8 uM incubated for 24 hrs in presence of pan-caspase inhibitor z-VAD-FMK by Western blot analysis. The format is functional, cell-based.
The next test deals with BGC-823. Description: Antiproliferative activity against human BGC823 cells incubated for 48 hrs by MTT assay. The format is functional, cell-based. The conditions noted are these: BGC-823, 48 h.
The test system of test [5] is HCT-116. Description: Induction of apoptosis in human HCT116 cells assessed as early apoptotic cells at 8 uM incubated for 24 hrs in presence of pan-caspase inhibitor z-VAD-FMK by annexin-V-FITC/PI staining based FACS analysis (reference value: 8.08%). The class given is functional.
A further test relates to HeLa. Description: Antiproliferative activity against human HeLa cells incubated for 48 hrs by MTT assay. The format is functional, cell-based.
Test [6] has as its system HCT-116. The test is described as follows: Induction of apoptosis in human HCT116 cells assessed as late apoptotic cells incubated for 24 hrs by annexin-V-FITC/PI staining based FACS analysis. The class given is functional, cell-based.
Test [7] deals with HCT-116. The test is described as follows: Induction of autophagy in human HCT116 cells expressed with LC3B-EGFP-mCheery assessed as LC3 assembly on membrane of autophagosome incubated for 24 hrs by DAPI staining based confocal microscopic method. The format is functional, cell-based.
Test [8] concerns HCT-116. The test is described as follows: Induction of apoptosis in human HCT116 cells assessed as late apoptotic cells at 4 uM incubated for 24 hrs by annexin-V-FITC/PI staining based FACS analysis (reference value: 1.55 to 1.56%). The format is functional.
In test [9] the test system is HCT-116. Description: Induction of apoptosis in human HCT116 cells assessed as necrotic cells at 4 uM incubated for 24 hrs in presence of pan-caspase inhibitor z-VAD-FMK by annexin-V-FITC/PI staining based FACS analysis (reference value: 0.6%). The class given is functional.
The subject of test [10] is HCT-116. Description: Induction of apoptosis in human HCT116 cells assessed as viable cells at 8 uM incubated for 24 hrs in presence of pan-caspase inhibitor z-VAD-FMK by annexin-V-FITC/PI staining based FACS analysis (reference value: 85.28%). The format is functional. The conditions noted are these: HCT-116, 24 h, read-out: Activity.
Test [11] has as its system HCT-116. Description: Induction of morphological changes in human HCT116 cells assessed as reduction in cell number at 4 to 10 uM incubated for 24 hrs by phase-contrast microscopic method. The class given is functional, cell-based.
Test [12] has as its system HCT-116. The test is described as follows: Antiproliferative activity against human HCT116 cells incubated for 48 hrs by MTT assay. The format is functional, cell-based. The conditions noted are these: HCT-116, 48 h.
The subject of test [13] is HCT-116. Description: Induction of apoptosis in human HCT116 cells assessed as necrotic cells at 4 uM incubated for 24 hrs by annexin-V-FITC/PI staining based FACS analysis (reference value: 0.71 to 2.26%). The class given is functional.

The IC50 is the point on the concentration scale where inhibition reaches its midpoint. With `COc1cccc(Nc2ccnc3cc(OCCCc4ccccc4)ccc23)c1`, the viability at 8 µM in the test on HCT-116 [1] was 76.7%; with HCT-116 [10], 62.9%. Besides, the outcome with HCT-116 [2], with HCT-116 [3], in the test on HCT-116 [4] and in the test with HCT-116 [11] was Active. The IC50 with RKO worked out at 3.67 µM; in the test with BGC-823, 9.08 µM; in the test on HeLa, 2.71 µM; in the test on HCT-116 [12], 2.56 µM. Moreover, the Activity is 19.42% in the test on HCT-116 [5]; “Dose-dependent effect” in the test with HCT-116 [6]; “Dose-dependent effect” with HCT-116 [7]; 11.64% in the test with HCT-116 [8]; 1.3% in the test with HCT-116 [9]; 0.95% in the test on HCT-116 [13].
